Source: ChEMBL document CHEMBL5137058, “Therapeutic Strategies to Target the Androgen Receptor” (J Med Chem, 2022)
pEC50, pIC50, pKi: −log10 of the molar value.

Legend:
[1] = In vivo agonist activity at Androgen receptor in male rat assessed as increase in prostate weight at 2 mg/kg, po administered for 5 days; assay type: functional; conditions: time 5 day
[2] = In vivo agonist activity at Androgen receptor in male rat assessed as increase in levator ani muscle weight at 2 mg/kg, po administered for 5 days; assay type: functional; conditions: time 5 day
Androgen receptor [3] = target: Androgen receptor (Mus musculus, UniProt P19091); assay: Agonist activity at Androgen receptor (unknown origin) transfected in mouse C2C12 cells measured by luciferase reporter assay; assay type: cell-based
Sequence of Androgen receptor (Mus musculus, UniProt P19091) (P19091 whole entry): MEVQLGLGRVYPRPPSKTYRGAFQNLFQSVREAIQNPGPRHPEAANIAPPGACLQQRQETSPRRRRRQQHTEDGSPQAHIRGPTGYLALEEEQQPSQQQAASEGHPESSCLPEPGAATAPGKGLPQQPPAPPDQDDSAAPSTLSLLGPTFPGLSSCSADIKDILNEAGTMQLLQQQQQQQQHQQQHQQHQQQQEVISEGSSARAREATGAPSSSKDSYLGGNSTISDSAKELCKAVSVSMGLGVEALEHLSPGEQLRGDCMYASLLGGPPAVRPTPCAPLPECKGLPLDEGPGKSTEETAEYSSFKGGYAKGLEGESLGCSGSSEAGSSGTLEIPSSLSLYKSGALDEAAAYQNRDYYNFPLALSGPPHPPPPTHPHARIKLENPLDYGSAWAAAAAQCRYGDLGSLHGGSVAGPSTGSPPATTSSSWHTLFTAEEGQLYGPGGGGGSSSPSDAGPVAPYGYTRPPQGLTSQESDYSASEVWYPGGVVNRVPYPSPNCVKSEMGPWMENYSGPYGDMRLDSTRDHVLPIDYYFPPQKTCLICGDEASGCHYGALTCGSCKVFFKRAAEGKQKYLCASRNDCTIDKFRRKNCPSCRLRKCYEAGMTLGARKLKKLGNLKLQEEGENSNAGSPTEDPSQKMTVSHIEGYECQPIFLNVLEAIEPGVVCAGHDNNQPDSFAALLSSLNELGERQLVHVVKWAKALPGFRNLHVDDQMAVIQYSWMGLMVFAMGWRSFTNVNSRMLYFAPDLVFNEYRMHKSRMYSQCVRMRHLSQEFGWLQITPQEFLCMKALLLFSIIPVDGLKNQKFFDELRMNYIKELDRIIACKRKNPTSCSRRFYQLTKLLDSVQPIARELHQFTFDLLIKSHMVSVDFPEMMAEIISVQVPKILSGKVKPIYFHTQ

[4] = Antiproliferative activity against refractory human prostate cancer cells; assay type: functional, cell-based; conditions: Prostate tumor cell line
Androgen receptor [5] = target: T1, Androgen receptor (Homo sapiens, UniProt P10275); assay: Binding affinity to human Androgen receptor
T1 sequence (P10275 whole entry): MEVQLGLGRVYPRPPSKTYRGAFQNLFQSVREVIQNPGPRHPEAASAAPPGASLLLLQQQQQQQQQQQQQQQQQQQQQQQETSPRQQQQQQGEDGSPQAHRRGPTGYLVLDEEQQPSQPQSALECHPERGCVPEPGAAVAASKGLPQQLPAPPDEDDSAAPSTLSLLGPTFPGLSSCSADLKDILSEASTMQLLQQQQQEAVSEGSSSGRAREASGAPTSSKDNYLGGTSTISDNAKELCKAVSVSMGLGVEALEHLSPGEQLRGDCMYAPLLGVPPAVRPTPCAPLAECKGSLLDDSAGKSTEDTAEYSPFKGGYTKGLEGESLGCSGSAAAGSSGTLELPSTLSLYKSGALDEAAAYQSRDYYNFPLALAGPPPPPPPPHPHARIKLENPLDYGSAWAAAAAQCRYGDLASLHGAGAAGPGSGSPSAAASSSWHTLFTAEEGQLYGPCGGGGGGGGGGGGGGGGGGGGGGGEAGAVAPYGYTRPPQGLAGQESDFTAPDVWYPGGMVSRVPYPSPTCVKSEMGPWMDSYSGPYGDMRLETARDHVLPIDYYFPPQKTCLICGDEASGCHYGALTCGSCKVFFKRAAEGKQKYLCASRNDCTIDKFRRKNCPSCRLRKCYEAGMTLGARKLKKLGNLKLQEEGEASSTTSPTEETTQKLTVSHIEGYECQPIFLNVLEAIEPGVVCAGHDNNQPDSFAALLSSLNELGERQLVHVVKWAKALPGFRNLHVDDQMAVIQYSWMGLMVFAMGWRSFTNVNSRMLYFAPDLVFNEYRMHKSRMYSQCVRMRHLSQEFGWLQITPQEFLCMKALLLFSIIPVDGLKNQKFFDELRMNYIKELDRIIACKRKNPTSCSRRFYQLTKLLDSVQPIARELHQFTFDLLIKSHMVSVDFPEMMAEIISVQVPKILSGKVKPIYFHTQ

Androgen receptor [6] = target: T1, Androgen receptor; assay: Agonist activity at human Androgen receptor expressed in human MDA-MB-453 cells cotransfected with MMTV-Luc assessed as transactivation modulation of AR measured by luciferase reporter assay; assay type: cell-based
[7] = target: T2, Androgen receptor (Homo sapiens) (UniProt P10275); assay: Agonist activity at human Androgen receptor expressed in human MDA-MB-453 cells cotransfected with MMTV-Luc assessed as transactivation modulation of AR measured by luciferase reporter assay relative to control; assay type: cell-based; conditions: filed as agonist
T2 sequence (whole entry): T1 sequence (P10275 whole entry)

Androgen receptor [8] = target: T1, Androgen receptor; assay: Displacement of [3H]methyltrienolone from Androgen receptor expressed in human MDA-MB-453 cells; assay type: cell-based
Androgen receptor [9] = target: T1, Androgen receptor; assay: Binding affinity to human Androgen receptor measured by fluorescence polarization assay
[10] = In vivo antagonist activity at Androgen receptor assessed as reduction in wax ester in golden hamster ear model; assay type: functional, Cricetinae; design: concentration or dose not given beside the values
Rattus norvegicus = assay: Anti-androgenic activity in testosterone-treated castrated rat assessed as reduction in prostate weight at 2 mg administered orally per day for 5 days; assay type: functional; design: Activity: scale not given: the % may be the effect or the level left; conditions: route po, time 5 day
LNCaP = assay: Antiproliferative activity against human LNCaP cells; assay type: functional, cell-based
SC-3 = assay: Antiproliferative activity against mouse SC-3 cells; assay type: functional, cell-based
Androgen receptor [11] = target: T1, Androgen receptor; assay: Binding affinity to Androgen receptor (unknown origin); conditions: read-out: IC50
Androgen receptor [12] = target: T1, Androgen receptor; assay: Partial agonist activity at human Androgen receptor
Androgen receptor [13] = target: Androgen receptor (Rattus norvegicus, UniProt P15207); assay: Binding affinity to rat Androgen receptor in African green monkey COS-7 cells measured by whole-cell binding assay; assay type: cell-based
Sequence of Androgen receptor (Rattus norvegicus, UniProt P15207) (P15207 whole entry S389L): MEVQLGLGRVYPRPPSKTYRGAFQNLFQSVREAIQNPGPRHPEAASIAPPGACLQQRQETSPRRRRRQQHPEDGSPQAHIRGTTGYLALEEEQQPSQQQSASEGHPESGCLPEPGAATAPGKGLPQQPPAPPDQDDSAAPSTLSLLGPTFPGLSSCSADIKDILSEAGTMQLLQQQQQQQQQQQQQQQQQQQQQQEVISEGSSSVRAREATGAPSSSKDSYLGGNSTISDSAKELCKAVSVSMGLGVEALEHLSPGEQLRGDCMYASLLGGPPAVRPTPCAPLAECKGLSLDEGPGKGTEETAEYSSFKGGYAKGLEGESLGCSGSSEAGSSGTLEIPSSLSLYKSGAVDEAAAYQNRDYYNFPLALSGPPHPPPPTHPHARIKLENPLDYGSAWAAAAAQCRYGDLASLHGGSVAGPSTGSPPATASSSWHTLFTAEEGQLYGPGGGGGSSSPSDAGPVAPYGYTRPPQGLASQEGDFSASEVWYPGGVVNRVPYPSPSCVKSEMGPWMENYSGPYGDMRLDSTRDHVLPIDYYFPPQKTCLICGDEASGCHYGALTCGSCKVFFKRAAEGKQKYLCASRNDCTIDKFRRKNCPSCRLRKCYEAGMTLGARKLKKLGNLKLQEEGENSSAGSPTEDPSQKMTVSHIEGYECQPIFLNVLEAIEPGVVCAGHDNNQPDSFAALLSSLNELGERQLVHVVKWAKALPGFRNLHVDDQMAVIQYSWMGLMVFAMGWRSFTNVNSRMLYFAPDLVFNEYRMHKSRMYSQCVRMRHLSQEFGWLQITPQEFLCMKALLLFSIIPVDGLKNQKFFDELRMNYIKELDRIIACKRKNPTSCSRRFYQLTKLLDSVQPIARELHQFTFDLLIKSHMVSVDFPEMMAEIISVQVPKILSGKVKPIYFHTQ

Androgen receptor [14] = target: T1, Androgen receptor; assay: Antagonist activity at Androgen receptor in human MDA-MB-453 cells measured by SEAP reporter gene assay; assay type: cell-based
Androgen receptor [15] = target: T1, Androgen receptor; assay: Antagonist activity at Androgen receptor in human LNCaP cells measured by SEAP reporter gene assay; assay type: cell-based
Androgen receptor [16] = target: T1, Androgen receptor; assay: Displacement of [3H]DHT from Androgen receptor expressed in human MDA-MB-453 cells; assay type: cell-based
[17] = system: Androgen receptor (Homo sapiens), P10275 [UNDEFINED MUTATION]; assay: Induction of degradation of Androgen receptor splice variant 3 (unknown origin) at 7.5 uM
[18] = target: T2, Androgen receptor (Homo sapiens); assay: Induction of degradation of Androgen receptor (unknown origin) at 7.5 uM
[19] = target: T3, Protein cereblon/Androgen receptor/Cullin-4A (Homo sapiens, UniProt P10275+Q96SW2+Q13619); assay: Protac activity at CRBN/Cullin 4A/Androgen receptor in human VCaP cells assessed as Androgen receptor degradation; assay type: cell-based
T3 sequence (Q96SW2 whole entry, one chain of several): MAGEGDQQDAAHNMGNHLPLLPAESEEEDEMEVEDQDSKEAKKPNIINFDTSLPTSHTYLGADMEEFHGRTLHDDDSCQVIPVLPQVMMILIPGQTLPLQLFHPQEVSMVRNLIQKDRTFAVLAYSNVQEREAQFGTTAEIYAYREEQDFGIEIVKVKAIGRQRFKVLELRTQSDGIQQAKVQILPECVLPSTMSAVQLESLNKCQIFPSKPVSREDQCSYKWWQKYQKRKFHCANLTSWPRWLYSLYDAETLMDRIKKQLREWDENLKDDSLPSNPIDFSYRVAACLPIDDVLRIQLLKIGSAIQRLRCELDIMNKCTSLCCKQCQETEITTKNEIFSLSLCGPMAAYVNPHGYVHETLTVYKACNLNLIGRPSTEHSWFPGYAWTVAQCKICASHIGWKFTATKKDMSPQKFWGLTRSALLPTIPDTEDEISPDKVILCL
T3 sequence (Q13619 whole entry, one chain of several): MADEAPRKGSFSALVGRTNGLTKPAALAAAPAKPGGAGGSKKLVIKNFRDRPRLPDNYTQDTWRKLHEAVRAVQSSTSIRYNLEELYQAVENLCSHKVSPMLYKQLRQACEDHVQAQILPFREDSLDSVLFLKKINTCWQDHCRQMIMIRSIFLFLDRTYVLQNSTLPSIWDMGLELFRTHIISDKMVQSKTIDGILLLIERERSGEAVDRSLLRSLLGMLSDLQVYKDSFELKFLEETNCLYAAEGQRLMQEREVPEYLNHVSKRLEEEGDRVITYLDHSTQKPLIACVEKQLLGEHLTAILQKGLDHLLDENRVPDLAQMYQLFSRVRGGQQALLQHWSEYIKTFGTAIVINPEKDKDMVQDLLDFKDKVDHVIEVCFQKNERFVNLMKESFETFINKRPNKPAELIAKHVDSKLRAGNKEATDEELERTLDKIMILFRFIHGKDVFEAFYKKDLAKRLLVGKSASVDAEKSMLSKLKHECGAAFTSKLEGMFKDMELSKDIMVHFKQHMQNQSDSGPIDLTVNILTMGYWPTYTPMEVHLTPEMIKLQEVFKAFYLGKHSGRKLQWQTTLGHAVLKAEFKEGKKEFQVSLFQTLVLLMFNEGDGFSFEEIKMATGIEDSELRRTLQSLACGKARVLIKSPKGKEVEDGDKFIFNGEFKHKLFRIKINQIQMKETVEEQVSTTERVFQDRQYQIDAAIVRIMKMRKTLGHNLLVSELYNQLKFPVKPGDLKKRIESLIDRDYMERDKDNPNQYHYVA

[20] = target: T3, Protein cereblon/Androgen receptor/Cullin-4A; assay: Protac activity at CRBN/Cullin 4A/Androgen receptor in human LNCaP cells assessed as Androgen receptor degradation; assay type: cell-based
[21] = Oral bioavailability in mouse; assay type: ADME, organism-based; conditions: in vivo
Androgen receptor [22] = target: T1, Androgen receptor; assay: Antagonist activity at Androgen receptor in human MDA-kb2 cells; assay type: cell-based

Cc1c(/N=C2\N=C(N)N3N=C(C(F)(F)F)C[C@@]23C)ccc(C#N)c1C(F)(F)F
Activity [1]: 36%
Activity [2]: 91%

Cc1c(N2C(=O)[C@@H]3[C@H](O)CCN3C2=O)ccc(C#N)c1Cl
pEC50 (Androgen receptor [3]): 8.64

N#Cc1ccc(-n2c(=O)n(Cc3ccccc3)c3ccccc32)cc1C(F)(F)F
pIC50 [4]: 6.77

N#Cc1ccc(N2CCC[C@@H]2[C@@H](O)C(F)(F)F)cc1C(F)(F)F [VK5211]
pKi (Androgen receptor [5]): 9.00

CN1C(=O)C(F)=C[C@]2(C)[C@H]3CC[C@]4(C)[C@@H](O)/C(=C/c5cncnc5)C[C@H]4[C@@H]3CC[C@@H]12
pEC50 (Androgen receptor [6]): 7.77
Activity [7]: 141%
pIC50 (Androgen receptor [8]): 7.23

Cc1c(N[C@@H](c2ccc(-c3ccc(C#N)cc3)o2)[C@H](C)O)ccc(C#N)c1Cl
pKi (Androgen receptor [9]): 8.15

Cc1ccccc1Oc1ccc(C#N)c(Cl)c1
Activity [10]: >87%

CC(O)(c1nc2cc(Cl)c(Cl)cc2[nH]1)C(F)(F)F (stereo not drawn)
ID50 (Rattus norvegicus): 0.32 mg/day
Activity (Rattus norvegicus; at 2 mg): 96%

N#Cc1ccc(O[C@@H]2CCCC[C@H]2C#N)cc1C(F)(F)F
Activity [10]: 64%

O=c1[nH]nc(Cc2c(Cl)cccc2Cl)c2ccccc12
pIC50 (LNCaP): 6.25
pIC50 (SC-3): 6.74

CC(O)(CS(=O)(=O)c1ccc(F)cc1)C(=O)Nc1ccc(C#N)c(C(F)(F)F)c1 (stereo not drawn) [BICALUTAMIDE]
pIC50 (LNCaP): 6.80

CC1(C)C(=O)N(c2ccc(C#N)c(Cl)c2)C(=S)N1CCCS(N)(=O)=O
pIC50 (LNCaP): 6.39

CC(O)(COC(=O)c1ccccc1C(F)(F)F)c1cc2cc([N+](=O)[O-])c(C(F)(F)F)cc2[nH]1 (stereo not drawn)
pIC50 (Androgen receptor [11]): 6.85

N#Cc1ccc(N2C(=O)N[C@@](CO)(c3ccccc3)C2=O)cc1C(F)(F)F
pIC50 (Androgen receptor [12]): 7.89

CN1C(=O)C(F)=C[C@]2(C)[C@H]3CC[C@]4(C)[C@@H](C(=O)NCc5nc6cccnc6[nH]5)CC[C@H]4[C@@H]3CC[C@@H]12 [MK-0773]
pIC50 (Androgen receptor [8]): 8.18

OC1(C(F)(F)F)CCCC2c3cc(Cl)c(Cl)cc3NC21 (stereo not drawn)
pIC50 (Androgen receptor [13]): 7.57

CCCCc1ccc(OC(=O)N2C[C@@H]3C[C@H]2[C@@H]2C(=O)N(c4ccc([N+](=O)[O-])c5ccccc45)C(=O)N32)cc1
pIC50 (Androgen receptor [14]): 7.22
pIC50 (Androgen receptor [15]): 5.32
pKi (Androgen receptor [16]): 7.14

CC1(C)CN(Cc2ccccc2)C(=O)[C@@H]1Oc1ccc(C#N)c(C(F)(F)F)c1
Activity [10]: 78%

COc1ccc(/C=C/C(=O)/C=C(O)/C=C/c2ccc(OC)c(OC)c2)cc1OC
Activity [17]: > 80%
Activity [18]: > 80%

CC(O)(C[S+]([O-])c1ccc(Cl)c(Cl)c1)c1cc2cc(Cl)c(C(F)(F)F)cc2[nH]1 (stereo not drawn)
pIC50 (Androgen receptor [11]): 7.00

CC1(C)[C@H](NC(=O)c2ccc(N3CCN(CC4CCN(c5ccc6c(c5)C(=O)N(C5CCC(=O)NC5=O)C6=O)CC4)CC3)cc2)C(C)(C)[C@H]1Oc1ccc(C#N)c(Cl)c1 (stereo partly drawn)
DC50 [19]: 0.28 nM
DC50 [20]: 8.3 nM
bioavailability [21]: 67%

N#CCC(O)(c1nc2cc(Cl)c(Cl)cc2[nH]1)C(F)(F)F (stereo not drawn)
pIC50 (Androgen receptor [11]): 8.70

CC(c1ccccc1)N(C)c1ccc(C#N)c(C(F)(F)F)n1 (stereo not drawn)
Activity [10]: 83%
pIC50 (Androgen receptor [22]): 7.35
pIC50 (Androgen receptor [5]): 7.70

N#Cc1ccc(N2C(=O)[C@H]3[C@@H]4C[C@@H](CN4C(=O)Oc4ccc(F)cc4)N3C2=O)cc1C(F)(F)F
pIC50 (Androgen receptor [14]): 6.46
pIC50 (Androgen receptor [15]): 5.41
pKi (Androgen receptor [16]): 7.74
